According to ChEMBL document CHEMBL1156105 (J Med Chem, 2009):
Activity calls are given as the source filed them. The rule behind the calls is not given here.

Columns and labels:
[1] = Metabolic stability in 10% human plasma assessed as half life at pH 7.4 by RP-HPLC
[2] = Metabolic stability in 50% human plasma assessed as half life at pH 7.4 by RP-HPLC
Plasma [3] = experiment: Metabolic stability in 50% human plasma assessed as aspirin release at pH 7.4 by RP-HPLC; assay type: ADME, cell-free; also: time not given here
Plasma [4] = experiment: Metabolic stability in 10% human plasma assessed as aspirin release at pH 7.4 by RP-HPLC; assay type: ADME, cell-free; also: time not given here
Plasma [5] = experiment: Metabolic stability in 50% human plasma assessed as half life at pH 7.4 by RP-HPLC; assay type: ADME, cell-free
[6] = Antiplatelets aggregatory activity in human platelets rich plasma assessed as inhibition of collagen-induced platelets aggregation by aggregometry; assay type: functional, cell-free; details: Platelet
Platelet [7] = experiment: Antiplatelets aggregatory activity in human platelets rich plasma assessed as inhibition of ADP-induced platelets aggregation by aggregometry; assay type: functional, cell-free
Platelet [8] = experiment: Antiplatelets aggregatory activity in human platelets rich plasma assessed as inhibition of ADP-induced platelets aggregation by aggregometry in presence of […] ODQ; assay type: functional, cell-free
Platelet [9] = experiment: Antiplatelets aggregatory activity in washed human platelets assessed as inhibition of ADP-induced platelets aggregation by aggregometry in presence of glutathione; assay type: functional, cell-based
Platelet [10] = experiment: Antiplatelets aggregatory activity in washed human platelets assessed as inhibition of ADP-induced platelets aggregation by aggregometry in presence of glutathione and ODQ; assay type: functional, cell-based
Plasma [11] = experiment: Metabolic stability in 50% human plasma assessed as half life at pH 7.4 by RP-HPLC in presence of BuChE-inhibitor dibucaine; assay type: ADME, cell-free
Plasma [12] = experiment: Metabolic stability in 50% human plasma assessed as half life at pH 7.4 by RP-HPLC in presence of AChE-inhibitor PMSF; assay type: ADME, cell-free
Plasma [13] = experiment: Metabolic stability in 50% human plasma assessed as half life at pH 7.4 by RP-HPLC in presence of cholinesterase-inhibitor eserine; assay type: ADME, cell-free
Plasma [14] = experiment: Metabolic stability in 50% human plasma assessed as half life at pH 7.4 by RP-HPLC in presence of BuChE-inhibitor isoOMPA; assay type: ADME, cell-free
Plasma [15] = experiment: Metabolic stability in 50% human plasma assessed as aspirin release at pH 7.4 by RP-HPLC in presence of BuChE-inhibitor dibucaine; assay type: ADME, cell-free
Plasma [16] = experiment: Metabolic stability in 50% human plasma assessed as aspirin release at pH 7.4 by RP-HPLC in presence of AChE-inhibitor PMSF; assay type: ADME, cell-free

| half-life [1] [min] | half-life [2] [min] | Activity (Plasma [3]) [%] | Activity (Plasma [4]) [%] | Structure (SMILES) | also measured |
| --- | --- | --- | --- | --- | --- |
| 3.9 | 1.3 |  |  | CC(=O)Oc1ccccc1C(=O)O[C@H]1CO[C@H]2[C@@H]1OC[C@H]2OC(=O)CCO[N+](=O)[O-] |  |
| 1.16 | 1.16 | 14 | 24 | CC(=O)Oc1ccccc1C(=O)O[C@H]1CO[C@H]2[C@@H]1OC[C@H]2OC(=O)c1cc(C)nc(Cl)c1 |  |
| > 20 | > 20 | < 0.5 | < 0.5 | CC(=O)Oc1ccccc1C(=O)O[C@H]1CO[C@H]2[C@@H]1OC[C@H]2OC(=O)c1ccc(-c2ccccc2)cc1 |  |
|  | 3.5 | 11 |  | CC(=O)Nc1cccc(C(=O)O[C@@H]2CO[C@H]3[C@@H]2OC[C@@H]3OC(=O)c2ccccc2OC(C)=O)c1 |  |
| 6.3 | 2.17 | 14.7 | 16 | CC(=O)Oc1ccccc1C(=O)O[C@H]1CO[C@H]2[C@@H]1OC[C@H]2OC(=O)c1ccc(C)cc1 |  |
| 1.1 | 0.9 | 29 | 44 | CC(=O)Oc1ccccc1C(=O)O[C@H]1CO[C@H]2[C@@H]1OC[C@H]2OC(=O)c1cccc(O)c1 |  |
| 1.93 | 0.9 | < 0.5 | 2 | CC(=O)Oc1ccccc1C(=O)O[C@H]1CO[C@H]2[C@@H]1OC[C@H]2OC(=O)C1CC1 |  |
| 11.6 |  | 14 | 18 | CC(=O)Oc1ccccc1C(=O)O[C@H]1CO[C@H]2[C@@H]1OC[C@H]2OC(=O)c1cnoc1C | t1/2 (Plasma [5]): 0.06 min |
| 2.6 | 2.7 | 55 | 51 | CC(=O)Oc1ccccc1C(=O)O[C@H]1CO[C@H]2[C@@H]1OC[C@H]2OC(=O)c1cccc(CO[N+](=O)[O-])c1 | IC50 [6]: 17.1 µM; inhibition (Platelet [7]): Active; inhibition (Platelet [8]): inactive; inhibition (Platelet [9]): Active; inhibition (Platelet [10]): inactive |
| 1.19 | 1.19 | 0.5 | 1 | CC(=O)Oc1ccccc1C(=O)O[C@H]1CO[C@H]2[C@@H]1OC[C@H]2OC(=O)c1ccc(O)cc1 |  |
| 3.3 | 0.64 | 29 | 19 | CC(=O)Oc1ccccc1C(=O)O[C@H]1CO[C@H]2[C@@H]1OC[C@H]2OC(=O)c1ccccc1 |  |
|  | 1.7 | < 0.5 |  | CCOc1cc(OCC)cc(C(=O)O[C@@H]2CO[C@H]3[C@@H]2OC[C@@H]3OC(=O)c2ccccc2OC(C)=O)c1 |  |
| 1.19 | 0.7 | < 0.5 |  | CCCCC(=O)O[C@@H]1CO[C@H]2[C@@H]1OC[C@@H]2OC(=O)c1ccccc1OC(C)=O |  |
| 4.95 | 1.14 | 85 | 72 | CC(=O)Oc1ccccc1C(=O)O[C@H]1CO[C@H]2[C@@H]1OC[C@H]2OC(=O)c1ccccc1O | IC50 [6]: 20.6 µM; inhibition (Platelet [7]): Active |
|  |  |  |  | CC(=O)Oc1ccccc1C(=O)O [ASPIRIN] | IC50 [6]: 20.6 µM |
| 23.1 | 4.33 | 19 | 28 | CC(=O)Oc1ccccc1C(=O)O[C@H]1CO[C@H]2[C@@H]1OC[C@H]2OC(=O)c1ccccc1OC(=O)c1ccccc1 |  |
| 3.47 | 0.99 | 7 | 5 | COc1ccccc1C(=O)O[C@@H]1CO[C@H]2[C@@H]1OC[C@@H]2OC(=O)c1ccccc1OC(C)=O |  |

| half-life [1] [min] | half-life [2] [min] | Activity (Plasma [3]) [%] | Activity (Plasma [4]) [%] | Structure (SMILES) | also measured |
| --- | --- | --- | --- | --- | --- |
| 2.77 | 1.36 | 22 | 13 | CC(=O)Oc1ccccc1C(=O)O[C@H]1CO[C@H]2[C@@H]1OC[C@H]2OC(=O)c1ccc([N+](=O)[O-])cc1 |  |
| 3.65 | 0.57 | 1.3 | 1.2 | CC(=O)Oc1ccccc1C(=O)O[C@H]1CO[C@H]2[C@@H]1OC[C@H]2OC(C)=O |  |
| 2.1 | 0.83 | 59 | 46 | CC(=O)Oc1ccccc1C(=O)O[C@H]1CO[C@H]2[C@@H]1OC[C@H]2OC(=O)c1ccccc1C |  |
| 3.15 | 1.1 | 4 | 2.6 | COc1ccc(C(=O)O[C@@H]2CO[C@H]3[C@@H]2OC[C@@H]3OC(=O)c2ccccc2OC(C)=O)cc1 |  |
| 3.6 | 0.9 |  |  | CC(=O)Oc1ccccc1C(=O)O[C@H]1CO[C@H]2[C@@H]1OC[C@H]2OC(=O)CO[N+](=O)[O-] |  |
| 3.85 | 1.93 | 17 | 18 | CC(=O)Oc1ccccc1C(=O)O[C@H]1CO[C@H]2[C@@H]1OC[C@H]2OC(=O)c1cnccc1Cl |  |
| 5.33 | 4.08 | < 0.5 | 19 | CC(=O)Oc1ccccc1C(=O)O[C@H]1CO[C@H]2[C@@H]1OC[C@H]2OC(=O)c1ccc(C#N)cc1 |  |
| 3.15 | 0.85 | 17 | 19 | COc1cccc(C(=O)O[C@@H]2CO[C@H]3[C@@H]2OC[C@@H]3OC(=O)c2ccccc2OC(C)=O)c1 |  |
| 3.65 | 0.66 | 7 | 6.8 | CCC(=O)O[C@@H]1CO[C@H]2[C@@H]1OC[C@@H]2OC(=O)c1ccccc1OC(C)=O |  |
| 3.3 | 1.1 | < 0.5 | < 0.5 | CC(=O)Oc1ccccc1C(=O)O[C@H]1CO[C@H]2[C@@H]1OC[C@H]2O |  |
| 5.78 | 3.85 | 6 | 7 | CC(=O)Oc1ccccc1C(=O)O[C@H]1CO[C@H]2[C@@H]1OC[C@H]2OC(=O)c1ccnn1C |  |
| 3.7 | 0.33 | 27 | 19 | CC(=O)Oc1ccccc1C(=O)O[C@H]1CO[C@H]2[C@@H]1OC[C@H]2OC(=O)c1ccncc1 |  |
| 9.9 | 1.22 | 54 | 38 | CC(=O)Oc1ccccc1C(=O)O[C@H]1CO[C@H]2[C@@H]1OC[C@H]2OC(=O)c1cccc(C)c1 |  |
| 1.39 | 0.37 | 32 | 41 | CC(=O)Oc1ccccc1C(=O)O[C@H]1CO[C@H]2[C@@H]1OC[C@H]2OC(=O)c1cccnc1 |  |
| 6 | 2.4 | < 1 | < 5 | CC(=O)Oc1ccccc1C(=O)O[C@H]1CO[C@H]2[C@@H]1OC[C@H]2OC(=O)c1ccc(CO[N+](=O)[O-])cc1 | IC50 [6]: > 300 µM |
| 2.7 | 3.2 | 34 | 32 | CC(=O)Oc1ccccc1C(=O)O[C@H]1CO[C@H]2[C@@H]1OC[C@H]2OC(=O)c1ccccc1CO[N+](=O)[O-] | IC50 [6]: 90.3 µM |
| 3.85 | 0.39 | 31 | 32 | CC(=O)Oc1ccccc1C(=O)O[C@H]1CO[C@H]2[C@@H]1OC[C@H]2OC(=O)c1snnc1C |  |

| Structure (SMILES) | half-life [1] [min] | half-life [2] [min] | Activity (Plasma [3]) [%] | Activity (Plasma [4]) [%] | also measured |
| --- | --- | --- | --- | --- | --- |
| CC(=O)Oc1ccccc1C(=O)O[C@@H]1CO[C@H]2[C@@H]1OC[C@@H]2O[N+](=O)[O-] (racemic) | 1.3 |  |  |  |  |
| CC(=O)Oc1ccccc1C(=O)O[C@H]1CO[C@H]2[C@@H]1OC[C@H]2O[N+](=O)[O-] | 0.867 | 0.188 | 7.7 | 9.1 | t1/2 (Plasma [11]): 4.2 min; t1/2 (Plasma [12]): 2.9 min; t1/2 (Plasma [13]): 178 min; t1/2 (Plasma [14]): 38.3 min; Activity (Plasma [15]): 6.75%; Activity (Plasma [16]): 6.2% |
